{
  "source": "paper PMC7808747",
  "about": "“Design, synthesis, and in vitro evaluation of BP-1-102 analogs with modified hydrophobic fragments for STAT3 inhibition” (Journal of Enzyme Inhibition and Medicinal Chemistry, 2021)",
  "key": {"[1]": {"test_system": "human breast cancer MDA-MB-231 cell line", "experiment": "Resazurin cytotoxicity assay, MDA-MB-231", "assay_type": "cell-based", "settings": "resazurin assay; for cytotoxic effect in MDA-MB-231 (in words): 0, 5, 10, 20, 50 µM", "protocol": "(§1) The cells were treated with the compounds at concentrations 0, 5, 10, 20, and 50 µM for 24 h, and the cytotoxicity was estimated by the resazurin assay.\nTo estimate IC50 of 6 and 14, MDA-MB-231 cells were treated with 1 (0, 2, 5, 10, 15, 20, 25, 30, 40, and 50 µM), 6 (0, 5, 10, 20, 25, 30, 40, 50, 70, and 100 µM), and 14 (0, 20, 40, 50, 60, 70, 80, 100, 150, and 200 µM) for 24 h.\n(§2) The resazurin reduction assay[34] was performed as described previously. Briefly, cells were seeded onto a 96-well plate (2000 cells per well) in hexaplicate and the following day treated with the tested compounds (dissolved in DMSO as 50 mM stock) in a concentration range as indicated. After 24 h, 200 μl of culture medium of each well was exchanged for 100 μl of resazurin (stock 30 mg/ml; Sigma, St. Louis, MO) diluted 10 times in the culture medium, and the cells were incubated at 37 °C for 1–3 h. Reading of fluorescence was done using an Envision reader (PerkinElmer, Waltham, MA). Absolute values of fluorescence were related to the values of control/untreated cells. To estimate the cytotoxic concentration (half maximal inhibitory concentration, IC50), log-scale data were processed in GraphPad Prism software (La Jolla, CA) using nonlinear fit curve."}, "[2]": {"test_system": "prostate carcinoma DU-145", "experiment": "Resazurin cytotoxicity assay, DU-145", "protocol": "(§3) Furthermore, the cytotoxicity of compound 6 was compared to BP-1-102 (1) in human glioblastoma cell lines U-87 and T98 in concentration range 0–80 µM for 24 h using the crystal violet assay.\nas §2"}, "[3]": {"test_system": "human breast adenocarcinoma MCF-7", "experiment": "Resazurin cytotoxicity assay, MCF-7", "protocol": "as §3, §2"}, "RPE-1": {"test_system": "RPE-1", "experiment": "Resazurin assay, RPE-1 (Table 2)", "assay_type": "cell-based", "settings": "Homo sapiens, resazurin assay (footnote a), read-out: IC50±SD RPE-1", "quoted_text": "The resazurin reduction assay[34] was performed as described previously[38]. Briefly, cells were seeded onto a 96-well plate (2000 cells per well) in hexaplicate and the following day treated with the tested compounds (dissolved in DMSO as 50 mM stock) in a concentration range as indicated. After 24 h, 200 μl of culture medium of each well was exchanged for 100 μl of resazurin (stock 30 mg/ml; Sigma, St. Louis, MO) diluted 10 times in the culture medium, and the cells were incubated at 37 °C for 1–3 h. Reading of fluorescence was done using an Envision reader (PerkinElmer, Waltham, MA). Absolute values of fluorescence were related to the values of control/untreated cells. To estimate the cytotoxic concentration (half maximal inhibitory concentration, IC50), log-scale data were processed in GraphPad Prism software (La Jolla, CA) using nonlinear fit curve."}, "[4]": {"test_system": "mouse lung TC-1 cancer cell line", "experiment": "MTT cytotoxicity assay, TC-1", "assay_type": "cell-based", "settings": "for cytotoxic effect in TC-1 (in words): 0–50 µM, 24 h", "protocol": "(§4) Cells were seeded at the density of 2000 cells per well (96-well F microplates; Nunc, Roskilde, Denmark). The following day, the tested compounds were added. In the next 24 h, MTT (3-(4,5-dimethylthiazol-2-yl)-2,5-diphenyltetrazolium bromide) was added. After 6 h, DMF (dimethylformamide) was added, and after additional 24 h, absorbance was measured at 560 nm by a microplate reader."}, "[5]": {"test_system": "mouse prostate TRAMP-C2 cancer cell line", "experiment": "MTT cytotoxicity assay, TRAMP-C2", "assay_type": "cell-based", "settings": "MTT assay; for cytotoxic effect in TRAMP-C2 (in words): 0–50 µM, 24 h", "protocol": "as §4"}, "[6]": {"test_system": "human immortalised retinal pigment epithelium RPE-1", "experiment": "Crystal violet assay, RPE-1", "settings": "0–50 µM, 24 h", "protocol": "as §1\n(§5) To determine cell viability by crystal violet assay, cells were seeded in 96-well plates at densities of 3000 (RPE-1), 5000 (U373 and T98-G), and 8000 (U-87 MG) cells per well. The next day the cells were treated with the tested compounds in triplicate in a concentration range as indicated. After 24 h, the cells in each well were washed twice with 150 µl PBS and then stained in 30 µl 0.5% w/v crystal violet in 20% methanol for 15 min. Plates were washed three times with double distilled H2O and left to dry overnight. Crystal violet was solubilised with 75 µl 0.2% Triton X-100 (Sigma, St. Louis, MO) in PBS for 15 min. Absorbance of crystal violet was measured at 595 nm using a microplate reader (Multiskan EX, Thermo Electron Corporation, Waltham, MA). Absorbance of the treated samples was expressed as a percentage of absorbance of untreated cells."}, "human glioblastoma U373": {"test_system": "human glioblastoma U373", "experiment": "Crystal violet assay, U373", "settings": "0–50 µM, 24 h", "protocol": "as §1, §5"}, "cervix carcinoma HeLa": {"test_system": "cervix carcinoma HeLa", "experiment": "Resazurin cytotoxicity assay, HeLa", "settings": "0–50 µM, 24 h", "protocol": "as §3, §2"}, "osteosarcoma U2-OS": {"test_system": "osteosarcoma U2-OS", "experiment": "Resazurin cytotoxicity assay, U2-OS", "settings": "0–50 µM, 24 h", "protocol": "as §3, §2"}, "MDA-MB-231 cells": {"test_system": "MDA-MB-231 cells", "experiment": "Annexin V / propidium iodide FACS, MDA-MB-231", "assay_type": "cell-based, human", "settings": "MDA-MB-231, 0, 5, 10, 20, 50 µM, 24 h", "quoted_text": "(§6) Cells were harvested by centrifugation, resuspended in cold PBS and again centrifuged. Cell pellets were then resuspended in Annexin V Binding Buffer (ApoFlowEx FITC Kit, ED7044, Exbio, Vestec, Czech Republic), annexin V-APC and PI were added to the cell pellet and mixed. Cells were incubated in the dark at room temperature for 15 min. After the incubation, cells were centrifuged, resuspended in Annexin V Binding Buffer and analysed by flow cytometry. Five thousand cells per sample were measured by analysing annexin V and PI using a BD FACSVerse™ flow cytometer (BD Biosciences, Franklin Lakes, NJ). Data were analysed using FlowJo 10 software (FlowJo LLC, Ashland, OR), and the percentage of viable (annexin V-negative/PI-negative) cells relative to control was plotted."}, "TRAMP-C2 cells": {"test_system": "TRAMP-C2 cells", "experiment": "Annexin V / propidium iodide FACS, TRAMP-C2", "assay_type": "cell-based, mouse", "settings": "TRAMP-C2, 24 h", "quoted_text": "as §6"}, "[7]": {"test_system": "STAT3 Y705 phosphorylation (pY705)", "experiment": "STAT3 pY705 immunoblotting, MDA-MB-231", "assay_type": "cell-based, human", "settings": "MDA-MB-231, micromolar concentration range, 4 h", "protocol": "The cells were exposed to BP-1-102 (1), compounds 6 and 14 in a micromolar concentration range for 4 h, and then the levels of STAT3 pY705 and total STAT3 were probed by immunoblotting with specific antibodies. […] It can be concluded that both novel compounds 6 and 14 manifested inhibitory effects on receptor-mediated phosphorylation of Y705 of STAT3 in both human and mouse cell lines.\nCells were washed three times with PBS, harvested into 95 °C-heated Laemmli SDS sample lysis buffer (2% SDS, 50 mM Tris–Cl, 10% glycerol in double distilled H2O) and sonicated at 3 μm amplitude for 3 × 10 or 3 × 30 s with 10 or 30 s cooling intervals in a Soniprep 150 (MSE, London, UK) or Diagenode Bioruptor 300 (Diagenode, Liege, Belgium) for human and murine cell lines, respectively. Concentration of proteins was estimated by the Pierce^TM BCA Protein Assay (Thermo Scientific, Waltham, MA). DTT (100 mM) and 0.01% bromophenol blue were added to the lysates before separation by SDS-PAGE (10% gels were used). Equal protein amounts (40 or 35 μg for human or murine cell lines, respectively) were loaded into each well. Proteins were electrotransferred onto a nitrocellulose membrane (Amersham^TM Protran^TM 0.45 µm NC, GE Healthcare, Chalfont St Giles, UK) using wet transfer and detected by specific antibodies (at 4 °C overnight) combined with HRP-conjugated secondary antibodies. Peroxidase activity was detected by Amersham^TM ECL Western Blotting Detection Reagents (GE Healthcare, Chalfont St Giles, UK). GAPDH was used as a loading control."}, "TC-1 cells": {"test_system": "TC-1 cells", "experiment": "Annexin V / propidium iodide FACS, TC-1", "settings": "TC-1, 24 h", "quoted_text": "as §6"}, "[8]": {"test_system": "human breast cancer MDA-MB-231", "parameters": "method as in PMID 20067773", "settings": "previously published; cited from earlier work"}, "[9]": {"test_system": "pancreatic cancer Panc-1 cell lines", "parameters": "method as in PMID 20067773", "settings": "previously published; cited from earlier work"}},
  "data": [
    {"smiles": "CN(CC(=O)N(Cc1ccc(C(F)(F)F)cc1)c1ccc(C(=O)O)c(O)c1)S(=O)(=O)c1c(F)c(F)c(F)c(F)c1F", "note": "[Compound 14, 4-(N-(4-Trifluoromethylbenzyl)-2-(2,3,4,5,6-pentafluoro-N-methylphenylsulfonamido)acetamido)-2-hydroxybenzoic acid]", "values": [
      {"measurement": "IC50", "setting": "[1]; Homo sapiens, MDA-MB-231, 24 h, 24 h, read-out: IC50±SD MDA-MB-231", "result": "39.3 ± 6.3", "unit": "µM"},
      {"measurement": "concentration from which the compound was cytotoxic", "setting": "[1]; MDA-MB-231, 24 h", "result": 20, "unit": "µM"},
      {"measurement": "cytotoxic effect in DU-145 (in words)", "setting": "[2]; 0–50 µM, 24 h, resazurin assay", "result": "weaker response"},
      {"measurement": "IC50", "setting": "[2]; Homo sapiens, DU-145, read-out: IC50±SD DU-145", "result": "65.3 ± 7.8", "unit": "µM"},
      {"measurement": "cytotoxic effect in MCF-7 (in words)", "setting": "[3]; 0–50 µM, 24 h, resazurin assay", "result": "comparable to BP-1-102 (1) and compound 6 at 50 µM, it was markedly decreased at lower concentrations"},
      {"measurement": "IC50", "setting": "[3]; Homo sapiens, MCF7, read-out: IC50±SD MCF-7", "result": "47.3 ± 3.8", "unit": "µM"},
      {"measurement": "IC50", "setting": "RPE-1", "result": "39.7 ± 7.4", "unit": "µM"},
      {"measurement": "cytotoxic effect in TC-1 (in words)", "setting": "[4]", "result": "cytotoxic activity comparable to BP-1-102 (1)"},
      {"measurement": "IC50", "setting": "[4]; Mus musculus, read-out: IC50±SD TC-1", "result": "25.3 ± 6.6", "unit": "µM"},
      {"measurement": "cytotoxic effect in TRAMP-C2 (in words)", "setting": "[5]", "result": "cytotoxic activity comparable to BP-1-102 (1)"},
      {"measurement": "IC50", "setting": "[5]; Mus musculus, read-out: IC50±SD TRAMP-C2", "result": "23.1 ± 10.5", "unit": "µM"},
      {"measurement": "cytotoxic activity in RPE-1 (in words)", "setting": "[6]", "result": "concentration-dependent cytotoxic activity"},
      {"measurement": "cytotoxic activity in U373 (in words)", "setting": "human glioblastoma U373", "result": "concentration-dependent cytotoxic activity"},
      {"measurement": "cytotoxic effect in HeLa (in words)", "setting": "cervix carcinoma HeLa", "result": "comparable to BP-1-102 (1) and compound 6 at 50 µM, it was markedly decreased at lower concentrations"},
      {"measurement": "cytotoxic effect in U2-OS (in words)", "setting": "osteosarcoma U2-OS", "result": "comparable to BP-1-102 (1) and compound 6 at 50 µM, it was markedly decreased at lower concentrations"},
      {"measurement": "cell death induction (annexin V/PI, FACS)", "setting": "MDA-MB-231 cells", "result": "cell death induction was confirmed"},
      {"measurement": "cytotoxicity by annexin V/PI staining and FACS", "setting": "TRAMP-C2 cells", "result": "confirmed"},
      {"measurement": "inhibition of constitutive STAT3 Y705 phosphorylation", "setting": "[7]", "result": "inhibited constitutive STAT3 phosphorylation"},
      {"measurement": "cytotoxicity by annexin V/PI staining and FACS", "setting": "TC-1 cells", "result": "confirmed"}
    ]},
    {"smiles": "Cc1ccc(S(=O)(=O)N(C)CC(=O)N(Cc2ccc(C3CCCCC3)cc2)c2ccc(C(=O)O)c(O)c2)cc1", "note": "[S3I-201.1066 (2), 4-(N-(4-Cyclohexylbenzyl)-2-(N-methyl-N-(p-toluenesulfonyl))acetamido)-2-hydroxybenzoic acid, reference compound]", "values": [
      {"measurement": "cytotoxic effect in MDA-MB-231 (in words)", "setting": "[1]; 24 h", "result": "did not show any observable cytotoxic effect"},
      {"measurement": "cytotoxic effect in MDA-MB-231 (in words)", "setting": "[1]; 24 h, listed as 2", "result": "complete loss of cytotoxic activity"},
      {"measurement": "cytotoxic effect in TC-1 (in words)", "setting": "[4]", "result": "did not demonstrate any cytotoxic effect"},
      {"measurement": "cytotoxic effect in TRAMP-C2 (in words)", "setting": "[5]", "result": "did not demonstrate any cytotoxic effect"},
      {"measurement": "effect on viability of MDA-MB-231", "setting": "[8]", "result": "reported to affect viability"},
      {"measurement": "effect on viability of Panc-1", "setting": "[9]", "result": "reported to affect viability"}
    ]}
  ]
}
